Results from patent publication US20210221848A1, “POLYMYXIN DERIVATIVES AND THEIR USE IN COMBINATION THERAPY TOGETHER WITH DIFFERENT ANTIBIOTICS” (priority 2014, published 2021).
Where two headings read alike, the source gives them in different places.

Assays:
K. pneumoniae = test: MIC in the presence of a fixed concentration (2 μg/mL) of Rifampicin; assay type: cell-based, Klebsiella pneumoniae; conditions: Rifampicin 2 μg/mL, Table 5C
P. aeruginosa [1] = test: MIC in 1:1 (wt:wt) combination with Rifampicin; assay type: cell-based, Pseudomonas aeruginosa; conditions: 1:1 (wt:wt) with Rifampicin, total drug concentration
Procedure: The inoculum was prepared by making a direct suspension of isolated colonies (selected from an 18-24 hour Mueller-Hinton agar plate) adjusted to the 0.5 McFarland standard. […] The assays were performed in duplicate. […] In cases where the duplicate values varied by less than 2-fold, the lower of the two values is reported. If a variation of greater than 2-fold was observed, the assay was considered non-valid. Several of the compounds were subjected to multiple tests, and where this is the case, the MIC reflects the modal value obtained.
MIC values (microgram/mL) refer to the total drug concentration (i.e. test agent plus Rifampicin).

[2] = tested on: P. aeruginosa strains with elevated MICs to Polymyxin B; test: MIC against strains with elevated MICs to Polymyxin B; assay type: cell-based, Pseudomonas aeruginosa; conditions: for MIC P. aeruginosa 065: strain 065, elevated MIC to Polymyxin B; for MIC P. aeruginosa 066: strain 066, elevated MIC to Polymyxin B; for MIC P. aeruginosa 067: strain 067, elevated MIC to Polymyxin B
Method in brief: (§1)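 Duplicate runs; >2-fold disagreement = invalid, <2-fold = lower value kept. Inoculum: colonies (18-24 h Mueller-Hinton agar) suspended directly to 0.5 McFarland. Multiple tests → modal MIC.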

[3] = tested on: A. baumanii strains with elevated MICs to Polymyxin B; test: as above; assay type: cell-based, Acinetobacter baumannii
Method in brief: as §1

[4] = tested on: Pseudomonas aeruginosa ATCC 27853; assay type: in vivo; conditions: mouse lungs, P. aeruginosa ATCC 27853, SC at 2, 6 and 10 h post-infection, 16 h infection model
Procedure: Groups of 7 male neutropenic specific-pathogen-free CD-1 mice weighing 21.5-27.5 g were used. On Day 0, animals were infected with 0.04 mL inoculum by intranasal instillation into mouse nostrils and were kept in an upright position on a string rack for ˜10 min post-infection. […] At 2 h, the CFU count was determined from 3 mice and the remaining mice (7 per test compound groups) were treated with a subcutaneous injection of the drug at +2, 6 and 10 hr post-infection. Test compounds and the comparator polymyxin B were administered at four concentrations (2.6, 8.6, 17.2 and 25.8 mg/kg free base). The vehicle control group (7 mice) was treated with 0.9% saline for injection at 2, 6 and 10 h post-infection.
Sixteen hours after infection, the mice were euthanized humanely. The lungs of each animal were harvested, homogenized and quantitatively cultured onto CLED agar for CFU determination. Decrease of the total CFU compared to control counts at 16 h post-infection was determined for each dose group.
The in vivo efficacy of 4 compounds of the invention (D25, D36, D42 and D50) was evaluated in a mouse lung infection model of P. aeruginosa ATCC 27853. The model was setup as described above with the exception that groups of up to 8 mice were inoculated through intranasal instillation of ˜2.5×10^6 CFUs of P. aeruginosa isolate ATCC 27853 (1.0×10^5 CFU/lung). Test compounds were administered at two concentrations (equivalent to 4.3 and 17.2 mg/kg free base). Three dose levels of polymyxin B sulfate were used as comparator (equivalent to 4.3, 8.6 and 17.2 mg/kg free base).

P. aeruginosa [5] = tested on: P. aeruginosa

Question: Which results are given for Polymyxin B [PMB, reference compound]?
Answer: MIC in combination with Rifampicin, K. pneumoniae ATCC 4352 (K. pneumoniae; K. pneumoniae ATCC 4352): 0.06 micrograms/mL; MIC in combination with Rifampicin, K. pneumoniae ATCC BAA-2146 (K. pneumoniae; K. pneumoniae ATCC BAA-2146): 0.25 micrograms/mL; MIC in 1:1 combination with rifampicin, P. aeruginosa 063 (P. aeruginosa [1]; P. aeruginosa 063): 16 microgram/mL; MIC in 1:1 combination with rifampicin, P. aeruginosa 068 (P. aeruginosa [1]; P. aeruginosa 068): 1 microgram/mL; MIC P. aeruginosa 065 ([2]; Table 6D): 4 micrograms/mL; MIC P. aeruginosa 065 ([2]; Table 6F): 4 micrograms/mL; MIC P. aeruginosa 066 ([2]; Table 6D): 8 micrograms/mL; MIC P. aeruginosa 066 ([2]; Table 6F): 8 micrograms/mL; MIC P. aeruginosa 067 ([2]; Table 6D): 128 micrograms/mL; MIC P. aeruginosa 067 ([2]; Table 6F): 128 micrograms/mL; MIC A. baumannii 053 ([3]; strain 053, elevated MIC to Polymyxin B, Table 6D): 128 micrograms/mL; MIC A. baumanii 053 ([3]; strain 053, elevated MIC to Polymyxin B, Table 6F): 128 micrograms/mL; MIC A. baumannii 056 ([3]; strain 056, elevated MIC to Polymyxin B, Table 6D): 32 micrograms/mL; MIC A. baumanii 056 ([3]; strain 056, elevated MIC to Polymyxin B, Table 6F): 32 micrograms/mL; MIC A. baumannii 068 ([3]; strain 068, elevated MIC to Polymyxin B, Table 6D): 8 micrograms/mL; MIC A. baumanii 068 ([3]; strain 068, elevated MIC to Polymyxin B, Table 6F): 8 micrograms/mL; MIC A. baumannii 070 ([3]; strain 070, elevated MIC to Polymyxin B, Table 6D): 32 micrograms/mL; MIC A. baumanii 070 ([3]; strain 070, elevated MIC to Polymyxin B, Table 6F): 32 micrograms/mL; Mean log10 CFU reduction vs. control ([4]; 8.6 mg/kg/dose free base): 1.46 log10 CFU; Mean log10 CFU reduction vs. control ([4]; 17.2 mg/kg/dose free base): 2.87 log10 CFU; MIC (P. aeruginosa [5]; P. aeruginosa ATCC 27853): 0.5 µg/mL; MIC, P. aeruginosa ATCC 27853 (P. aeruginosa [5]; P. aeruginosa ATCC 27853, absence of a second agent, Table 6B): 0.5 micrograms/mL; MIC (P. aeruginosa [5]; P. aeruginosa CCUG 59347): 0.5 µg/mL; MIC, P. aeruginosa CCUG 59347 (P. aeruginosa [5]; P. aeruginosa CCUG 59347, absence of a second agent, Table 6B): 0.5 micrograms/mL; MIC, P. aeruginosa ATCC 27853 (P. aeruginosa [5]; strain ATCC 27853, compound alone): 0.5 micrograms/mL; MIC, P. aeruginosa CCUG 59347 (P. aeruginosa [5]; strain CCUG 59347, compound alone): 0.5 micrograms/mL
